The values below are quoted from earlier work in patent US20030109512A1, “Use of 4-androstenediol and 4-androstenediol in a transdermal formulation to increase testosterone levels in humans” (priority 2001, published 2003).

For the data set, the system named is estrogen levels. Particulars: some studies indicate.

As to `C[C@]12CCC(=O)C=C1CC[C@@H]1[C@@H]2CC[C@]2(C)C(=O)CC[C@@H]12` [androstenedione], the “effect on estrogen levels” value is recorded as “causes elevation of estrogen levels”.
